According to patent US12539298B2, “Lobinaline N-oxides as positive allosteric modulators of the dopamine transporter with potential value in the treatment of substance abuse disorders” (University of Kentucky Research Foundation, priority 2019, dated 2026):
pKi: −log10 of the molar value.

Key:
[1] = Drinking in the dark model of binge drinking; type: in vivo, C57Bl/6J mice; conditions: 25 mg/Kg SC
Description: “Drinking in the dark” is a model for binge drinking in which C57Bl/6J mice are given limited access to alcohol during their dark cycle. With repeated daily access, mice will voluntarily drink to blood alcohol levels above 150 mg/dl. Lobeline reduces alcohol consumption in this model and it has predictive validity in that both naltrexone and acamprosate are active.
Methods: 8 male and 8 female mice were used for each of these studies and scoring was by an observer blind to treatment. Statistical analysis was by ANOVA followed by Bonnferoni posthoc with significance at p<0.05.

[2] = biological target: T1, alpha4/beta2 nicAChR (Rattus norvegicus, UniProt P09483+P12390); assay: displacement of beta2-selective radioligand [3H]cytisine; type: binding
T1 construct: from tissue

[3] = aqueous solubility; type: physicochemical
Excerpt: Lobinaline (FIG. 1), was isolated from plant material and identified as the first-known binitrogenous plant alkaloid more than 80 years ago [27]. The applicants began to test its pharmacological activity after identifying Lobelia cardinalis as a novel source of nicAChR activity by high throughput screening in 2005 [26]. This plant species has no history of abuse, or traditional medicinal use of relevance to SUDs. […] These actions support lobinaline as a lead compound for the treatment of SUDs, particularly alcohol and nicotine use disorders. […] Lobinaline also appears to have appropriate pharmacokinetics and low toxicity. […] Conversely, this makes it a good test of the ability of target-directed evolution to generate novel inhibitors of the DAT in mutant plant cells.
Lobinaline and the “mono”-N-oxide were separated from plant and culture material by acid/base extraction, but the bi-N-oxide was derived from lobinaline using 3-chloroperbenzoic acid. All these compounds were separated by column chromatography with identity and purity confirmed by LC/MS.

[4] = tested on: rat striatal synaptosomes; assay: [3H]DA release from rat striatal synaptosomes; type: biochemical; conditions: preloaded synaptosomes; 10-500 uM tested; 30 min at 37° C
Description: [3H]DA release from rat striatal synaptosomes: Synaptosomes preloaded with [3H]DA were exposed to lobinaline (10-500 uM), 30 min @ 37° C.). [3H]DA release was calculated by subtraction of activity following drug treatment from activity in the absence of drug.

T1 sequence (P09483 31-630): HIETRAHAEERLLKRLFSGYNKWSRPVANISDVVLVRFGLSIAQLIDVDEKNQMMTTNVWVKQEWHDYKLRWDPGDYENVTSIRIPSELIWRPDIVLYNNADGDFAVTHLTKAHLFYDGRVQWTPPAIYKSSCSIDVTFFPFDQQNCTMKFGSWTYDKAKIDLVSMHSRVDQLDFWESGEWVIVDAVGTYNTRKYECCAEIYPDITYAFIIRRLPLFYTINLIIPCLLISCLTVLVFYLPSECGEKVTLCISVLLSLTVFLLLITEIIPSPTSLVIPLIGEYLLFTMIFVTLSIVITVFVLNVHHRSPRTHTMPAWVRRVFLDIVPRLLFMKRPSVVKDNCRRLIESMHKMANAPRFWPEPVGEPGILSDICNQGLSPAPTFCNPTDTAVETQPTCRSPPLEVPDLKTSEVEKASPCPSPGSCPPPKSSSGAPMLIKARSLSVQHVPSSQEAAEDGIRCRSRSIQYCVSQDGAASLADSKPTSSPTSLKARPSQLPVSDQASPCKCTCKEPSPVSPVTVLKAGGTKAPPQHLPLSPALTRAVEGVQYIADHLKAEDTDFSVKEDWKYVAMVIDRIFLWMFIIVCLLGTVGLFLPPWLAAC
T1 sequence (P12390 25-500): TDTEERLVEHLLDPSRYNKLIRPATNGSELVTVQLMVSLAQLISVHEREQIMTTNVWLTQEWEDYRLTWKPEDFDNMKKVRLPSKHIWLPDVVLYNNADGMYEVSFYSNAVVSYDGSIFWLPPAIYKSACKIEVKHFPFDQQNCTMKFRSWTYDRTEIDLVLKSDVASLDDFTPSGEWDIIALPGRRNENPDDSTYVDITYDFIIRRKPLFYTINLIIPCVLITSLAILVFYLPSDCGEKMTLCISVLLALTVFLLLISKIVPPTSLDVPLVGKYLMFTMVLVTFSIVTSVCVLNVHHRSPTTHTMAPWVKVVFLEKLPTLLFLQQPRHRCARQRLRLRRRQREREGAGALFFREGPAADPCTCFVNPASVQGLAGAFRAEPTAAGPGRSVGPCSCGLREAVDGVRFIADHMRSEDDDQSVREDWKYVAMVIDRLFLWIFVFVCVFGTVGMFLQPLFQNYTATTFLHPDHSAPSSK

**Q.** Which “food or water intake” value [1] does the source give for `CN1CCCC2C(c3ccccc3)C(C3=NCCCC3)C(c3ccccc3)CC21` (stereo not drawn) [lobinaline] here?
**A.** no reduction in food or water intake

**Q.** And the overt toxicity [1]?
**A.** neither compound produced overt toxicity

**Q.** What about the “inhibition of alcohol consumption” value ([1]; males and females) of the same compound?
**A.** ~40%

**Q.** What about the pKi [2] of the same compound?
**A.** 5.96

**Q.** What about the aqueous solubility [3] of the same compound?
**A.** very low aqueous solubility

**Q.** What about the “concentration causing significant release of [3H]DA” value [4] of the same compound?
**A.** 500 µM
